Data taken from patent publication US20230398130A1, “METHODS AND COMPOSITIONS FOR DIFFERENTIATING STEM CELLS” (Massachusetts Institute of Technology, priority 2020, published 2023).
Entries after “also recorded” stand apart in the source; their conditions may differ.

Tests used:
Paneth cells [1] = test: Flow cytometry of 3D-cultured intestinal organoids (ENR+CD, 6 days): Paneth cell fraction (lysozyme-positive, CD24-mid); format: cell-based, murine
Protocol: Flow cytometry analysis (3D culture). ISC-enriched organoids cultured in 3D Matrigel with ENRCV media were passaged to 24-well plate in 3D Matrigel with ENRCV. At day zero, media were replaced to ENRCD with or without indicated compounds, and media were replaced every other day. […] Flow cytometry was performed using an LSR Fortessa (BD; Koch Institute Flow Cytometry Core at MIT). The data were analyzed using FlowJo v10 software.
Single live cells were selected by several gating strategies and Paneth cells were identified as lysozyme-high, CD24-mid, side scatter-high (SSC-high) (FIG. 27E). […] To evaluate whether the culture media supplements C and D may alter the effects of the 6 hits, Applicants also performed lysozyme assay in the canonical ENR culture condition in 3-D (because Paneth cells exist in an immature state within ENR, Applicants were unable to robustly quantify Paneth cell number via flow cytometry).
(§1) Flow cytometry. ISC-enriched organoids in 3D Matrigel culture were passaged to a 48-well plate and induced differentiation for 6 days by ENR+CD media containing DMSO or each drug indicated in the figures. DMSO- or drug-containing media were changed every other day. […] After vigorous pipetting and incubation at 37° C. for 15 min, the cell solution was diluted twice with basal media and centrifuged at 300 rcf for 3 min. […] The cell solution was centrifuged again at 300 rcf for 3 min at 4° C. to pellet the cells. […] Cells were centrifuged again for 3 min at 300 rcf and blocked with staining buffer (FACS buffer containing 0.5% Tween20 (Sigma, P2287)) for 15 min at RT in the dark. […] Flow cytometry was performed using an LSR Fortessa (BD; Koch Institute Flow Cytometry Core at MIT). Flow cytometry data were analyzed using FlowJo X v10.6.1 software.
Live Paneth cells were identified as LYZ-high, CD24-mid, side scatter-high (SSC-high) (FIG. 50F).
as §1, with “organoids in 3-D Matrigel culture” for “organoids in 3D Matrigel culture”, “to a 24- or 48-well plate” for “to a 48-well plate”

lysozyme (LYZ) = test: Western blotting of lysozyme in 3D-cultured intestinal organoids; format: cell-based, murine; details: organoids cultured 6 days in ENR+CV, ENR+CD or ENR
Description: Western blotting. ISC-enriched organoids cultured in 3D Matrigel with ENRCV media were passaged to 24-well plate in 3D Matrigel with ENRCV. At day zero, media were replaced to ENR or ENRCD with or without indicated compounds, and media were replaced every other day. At day six, cells were harvested from Matrigel by mechanical disruption and suspended in basal media. Cell pellets were lysed with Pierce© IP lysis buffer (ThermoFisher, 87787) containing Halt™ Protease Inhibitor Cocktail, EDTA-Free (ThermoFisher, 87785) after 3-minute centrifuge at 300×g at 4° C. Cell extracts were resolved by NuPAGE© SDS-PAGE Gel system (ThermoFisher) and electroblotted onto polyvinylidene difluoride membranes using Criterion™ Blotter (Biorad). The membranes were blocked with 2% Blotting-Grade Blocker (Biorad, 1706404) in TBS-T (50 mM Tris-HCl, 150 mM NaCl, and 0.1% Tween 20, pH 8.0) and then probed with appropriate antibodies. Detection was performed using ECL Select™ Western Blotting Detection Reagent (Amersham, 45-000-999) and ImageQuant LAS4000 (GE Healthcare).
Western blotting. Organoid-containing gel was homogenized in basal medium and centrifuged at 300 rcf for 3 min. Organoid pellet was lysed with ice-cold Pierce IP Lysis Buffer (Thermo Fisher Scientific, #87787) containing Halt Protease Inhibitor Cocktail, EDTA-Free (Thermo Fisher Scientific, #87785) and incubated on ice for 20 min. The lysate was centrifuged at 17,000 rcf for 10 min, and the supernatant was combined with NuPAGE LDS Sample Buffer (Thermo Fisher Scientific, NP0007). Protein concentration was determined by Pierce 660 nm Protein Assay (Thermo Fisher Scientific, #22660) and normalized to the lowest concentration among each sample set. […] Chemiluminescent signals were detected by LAS4000 (GE Healthcare) using Amersham ECL Select Western Blotting Detection Reagent (GE Healthcare, #45-000-999), and total protein signals were obtained by Odyssey Imaging System (LI-COR Biosciences) using REVERT Total Protein Stain Kit (LI-COR Biosciences, #926-11010).

Paneth cells [2] = test: Immunofluorescent imaging of organoids: LYZ+ cells per organoid area; format: cell-based, murine
Protocol: Immunofluorescent imaging. For immunofluorescence staining of organoids, intestinal organoids in Matrigel were fixed with 4% paraformaldehyde, then transferred to centrifuge tube. After washing with PBS, the isolated organoids were permeabilized with 1% Triton X followed by incubation with blocking buffer (1% BSA+3% Donkey Serum+0.2% Triton X in PBS) at RT. The organoids were then stained with primary antibodies and fluorescent dye-labeled secondary antibodies as well as with DAPI. Slides were covered with […]® Mounting Media (VECTOR). The following primary and secondary antibodies were used for the staining: rabbit anti-Lysozyme (1:1000, Thermo Fisher Scientific), rat anti-E-cadherin (1:1000, Thermo Fisher Scientific), Alexa Fluor 488 and 568 secondary antibodies (1:1000, Invitrogen). Images were acquired with a confocal laser scanning microscope (Nikon Eclipse 90i). For the analysis of Lysozyme+ cells per organoid area, the number of counted Lysozyme+ cells were normalized to measured organoid surface area. Image J was used for the data analysis.

intestinal organoids = test: Population RNA-sequencing of organoids; format: cell-based, murine; details: ENR+CV, ENR+CD or ENR organoids
Protocol: Population RNA-sequencing. Population RNA-seq was performed using a derivative of the Smart-Seq2 protocol for single cells. In brief, organoid media was aspirated and RLT+BME (Qiagen) was added to each well, and plate shaken for 30 minutes to fully lyse. Lysate was aliquoted into 4 identical fractions and stored at −80° C. until reverse transcription. RNA lysate was thawed and cleaned with a 2.2×SPRI ratio using Agencourt RNAClean XP beads (Beckman Coulter, A63987). RNA-seq was performed on a bulk population of […] using Smart-Seq2 chemistry, starting with a 2.2×SPRI ratio cleanup. After oligo-dT priming, Maxima H Minus Reverse Transcriptase (ThermoFisher EP0753) was used to synthesize cDNA with an elongation step at 52° C. before PCR amplification (15 cycles for tissue, 18 cycles for sorted basal cells) using KAPA HiFi PCR Mastermix (Kapa Biosystems KK2602). Sequencing libraries were prepared using the Nextera XT DNA tagmentation kit (Illumina FC-131-1096) with 250 pg input for each sample. Libraries were pooled post-Nextera and cleaned using Agencourt AMPure SPRI beads with successive 0.7× and 0.8× ratio SPRIs and sequenced with an Illumina 75 Cycle NextSeq500/550v2 kit (Illumina FC-404-2005) with loading density at 2.2 pM, with paired end 35 cycle read structure. Samples were sequenced at an average read depth of 8.44 million reads per sample and a total of 96 samples.
Organoid samples were aligned to the Mm10 genome and transcriptome using STAR and RSEM. […] For module scoring with the in vivo Paneth and enteroendocrine cell-defining genes, Applicants used previously published gene sets and computed persample module scores through the Seurat package.

[3] = tested on: ENR-cultured 3D-embedded organoid; test: 384 well-based 3D-embedded organoid screening (ENR, 6 days, FDA approved drug library, 10 μM): Cch-induced lysozyme secretion; format: cell-based, murine
Description: Leveraging their experience in 2.5D culture organoid screening (Mead, et al., 2020 High-throughput organoid screening enables engineering of intestinal epithelial composition. bioRxiv 2020.04.27.063727; Example 2 and 5), Applicants optimized multiple parameters such as organoid number and density, Matrigel volume, and compound-induced secretion stimulation to detect secreted lysozyme from ENR-cultured 3D-embedded organoid. […] The scheme is shown in FIG. 31; briefly, (1) prepare small organoid fragments by mechanical disruption and culture in ENRCV media for 4 days to grow stem cell-rich organoid, (2) replace media to conventional organoid growth media (ENR) add compounds, and culture for 6 days in total, (3) measure Cch-induced lysozyme secretion and ATP abundance. Based on multiple condition examination results (see FIG. 32 as an example), Applicants concluded that 20 organoids/well and 7 μL Matrigel mixture/well is the reasonable culture condition for 384 well-based screening. Additionally, a Notch signaling inhibitor, DAPT, can be used as a positive control, and stimulating by carbachol helps broaden the window between negative and positive control samples (FIG. 32). Utilizing this newly established platform, Applicants performed 384 well-based high-throughput chemical compound screening, aiming for further identification of PC inducers. […] Applicants prepared duplicates for each sample to increase the reliability and chose a single dose point of drugs (10 μM) to execute the initial screening readily and efficiently while planning to analyze precise dose-responsiveness in the following validation step.
Applicants analyzed all the data by Python 3 as follows. Log 2 transformed lysozyme-derived fluorescent values were calculated; violin plots of negative and positive controls (FIG. 33) and histograms of samples were shown with respect to each assay plate (FIG. 34). […] To evaluate the compound effects, robust Z-scores were calculated based on the negative controls in each plate, and all results were concatenated. […]

organoid line = test: Validation and dose optimization of the FDA library hits: lysozyme secretion normalized to ATP abundance; format: cell-based; details: for lysozyme secretion normalized to ATP: 80 nM, different organoid line; for lysozyme secretion compared with KPT-330: in vitro validation, 80-320 nM
Protocol: Applicants next validated the initial screening results by the lysozyme secretion assays at four doses from 80 nM to 10 μM. To evaluate the cell-line dependent effect, Applicants utilized a different organoid line, derived from a different animal. DAPT-treated samples were prepared as positive controls, the same as in the screen. Applicants measured ATP abundance simultaneously as a surrogate of cell number and used it for normalizing lysozyme values. […] To further optimize the dose of each drug, Applicants treated with the three compounds at narrower dose range (80-320 nM) and KPT-330, previously identified PC inducer, for comparison.

SMILES	LYZ abundance per unit protein (Western blotting) (lysozyme (LYZ))	effect on Cch-induced lysozyme secretion (hit identification) [3]	lysozyme secretion normalized to ATP (organoid line)	lysozyme secretion compared with KPT-330 (organoid line)	further results
NC(=O)/C(=C/n1cnc(-c2cc(C(F)(F)F)cc(C(F)(F)F)c2)n1)c1cncnc1 [KPT-8602]	appreciably increase LYZ abundance				Paneth cell proportion in organoids (Paneth cells [1]; 160 nM KPT-8602, ENR+CD 6 days): statistically significant increases in Paneth cell representation; also recorded: increased the proportion of PC; also recorded: increasing the proportion of Paneth cells; proportion of Paneth cells (IF imaging) (Paneth cells [2]; 160 nM KPT-8602, ENR+CD 3 days): increasing the proportion of Paneth cells; secretory cell identity (Paneth, goblet, EEC) from bulk transcripts (intestinal organoids): increase secretory cells (Paneth, goblet, and EEC)
Nc1nc2nc[nH]c2c(=S)[nH]1 [Thioguanine]		identified as Paneth cell activators	effects were validated	outperformed KPT-330	
CCC(=C/[C@H](C)C/C=C/C(C)=C/[C@@H](C)C(=O)[C@@H](C)[C@H](O)[C@@H](C)C/C(C)=C/C(=O)O)/C=C/[C@@H]1OC(=O)C=C[C@@H]1C [Leptomycin B]	appreciably increase LYZ abundance				Paneth cell proportion in organoids (Paneth cells [1]; 2 ng/mL Leptomycin B, ENR+CD 6 days): statistically significant increases in Paneth cell representation; Paneth cell proportion in organoids (Paneth cells [1]; 2 ng/mL Leptomycin B, ENR+CD 6 days, listed as leptomycin B): increased the proportion of PC; also recorded: increasing the proportion of Paneth cells; proportion of Paneth cells (IF imaging) (Paneth cells [2]; 2 ng/mL Leptomycin B, ENR+CD 3 days): increasing the proportion of Paneth cells
Nc1ncn([C@H]2C[C@H](O)[C@@H](CO)O2)c(=O)n1 [Decitabine, 5-aza-2′-deoxycytidine]		identified as Paneth cell activators	effects were validated	outperformed KPT-330	
C=C1/C(=C\C=C2/CCC[C@]3(C)[C@@H]([C@H](C)/C=C/[C@@H](O)C4CC4)CC[C@@H]23)C[C@@H](O)C[C@@H]1O [Calcipotriene]		identified as Paneth cell activators	effects were validated	outperformed KPT-330	
